Experimental data published in ChEMBL document CHEMBL1201862, “PubChem BioAssay data set” (2004).
Calls of active or inactive are those of the source.

Assays:
[1] = target: T1, Rac GTPase-activating protein 1 (Homo sapiens, UniProt Q9H0H5); test: blockers of MgcRacGAP-driven Rac1 GTP hydrolysis – biochemical, ADP Hunter fluorescence, primary and confirmatory, confirmation (AID 624330); format: functional
T1 sequence (Q9H0H5 whole entry): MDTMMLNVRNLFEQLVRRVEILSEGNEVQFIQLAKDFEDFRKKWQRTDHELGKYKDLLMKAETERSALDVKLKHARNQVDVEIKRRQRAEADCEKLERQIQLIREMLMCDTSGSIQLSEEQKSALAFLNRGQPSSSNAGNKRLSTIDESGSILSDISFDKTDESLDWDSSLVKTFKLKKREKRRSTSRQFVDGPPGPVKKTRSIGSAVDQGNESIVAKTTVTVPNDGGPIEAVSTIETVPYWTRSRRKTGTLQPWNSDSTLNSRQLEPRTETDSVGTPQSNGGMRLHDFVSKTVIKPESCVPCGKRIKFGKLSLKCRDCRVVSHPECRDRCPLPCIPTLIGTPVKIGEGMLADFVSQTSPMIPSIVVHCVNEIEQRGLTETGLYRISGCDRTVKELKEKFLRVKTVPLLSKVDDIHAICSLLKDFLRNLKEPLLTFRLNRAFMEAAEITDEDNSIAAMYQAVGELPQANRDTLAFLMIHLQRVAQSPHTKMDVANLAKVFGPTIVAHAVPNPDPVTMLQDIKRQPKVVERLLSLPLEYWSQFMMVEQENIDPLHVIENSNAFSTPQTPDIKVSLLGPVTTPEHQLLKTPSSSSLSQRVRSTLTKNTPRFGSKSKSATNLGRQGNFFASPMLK

[2] = target: Large T antigen (Simian virus 40, UniProt P03070); format: functional, Betapolyomavirus macacae;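 note: Confirmatory-stage PubChem screen for compounds that inhibit SV40 T antigen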
Chain of Large T antigen (P03070 whole entry): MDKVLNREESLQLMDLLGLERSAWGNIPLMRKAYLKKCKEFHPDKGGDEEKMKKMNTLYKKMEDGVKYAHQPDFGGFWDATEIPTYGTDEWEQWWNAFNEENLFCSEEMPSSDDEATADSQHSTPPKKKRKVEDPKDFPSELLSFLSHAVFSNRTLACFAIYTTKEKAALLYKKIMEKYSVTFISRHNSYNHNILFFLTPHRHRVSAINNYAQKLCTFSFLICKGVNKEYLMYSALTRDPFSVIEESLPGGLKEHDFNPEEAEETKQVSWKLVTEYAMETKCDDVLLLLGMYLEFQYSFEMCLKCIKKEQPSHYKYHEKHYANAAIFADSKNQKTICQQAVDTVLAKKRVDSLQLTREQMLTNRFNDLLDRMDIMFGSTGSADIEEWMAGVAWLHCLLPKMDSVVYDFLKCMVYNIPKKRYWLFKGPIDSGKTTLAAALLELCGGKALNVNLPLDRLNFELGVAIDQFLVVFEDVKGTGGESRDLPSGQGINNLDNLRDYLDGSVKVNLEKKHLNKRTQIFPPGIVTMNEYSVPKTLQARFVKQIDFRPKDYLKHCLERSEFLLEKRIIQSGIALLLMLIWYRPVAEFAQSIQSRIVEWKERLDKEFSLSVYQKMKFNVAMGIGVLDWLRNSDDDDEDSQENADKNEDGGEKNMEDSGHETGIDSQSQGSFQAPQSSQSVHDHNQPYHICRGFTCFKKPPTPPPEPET

[3] = test system: H9c2; test: cells; format: functional, cell-based; conditions: Rattus norvegicus, H9c2, Myocardium;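 note: confirmatory concentration-response retest of ultra-high-throughput screening hits for modulation of myocardial damage; cell death induced by hydrogen peroxide oxidative stress; compound pretreatment for 60 min then peroxide exposure for 2 h; potency is for protecting the cells against peroxide damage rather than for killing them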
[4] = cells; format: functional
[5] = target: T2, Heat shock factor protein 1 (Mus musculus, UniProt P38532); test: decrease of HSF1-responsive luciferase luminescence – cell-based, NIH3T3, dose retest, confirmation (AID 2382); format: functional;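 note: NIH3T3 fibroblasts with HSF1-driven luciferase reporter stressed by proteasome inhibitor MG132; luminescence from HSF1-driven luciferase expression after 8 hours of MG132 stress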
T2 sequence (P38532 whole entry): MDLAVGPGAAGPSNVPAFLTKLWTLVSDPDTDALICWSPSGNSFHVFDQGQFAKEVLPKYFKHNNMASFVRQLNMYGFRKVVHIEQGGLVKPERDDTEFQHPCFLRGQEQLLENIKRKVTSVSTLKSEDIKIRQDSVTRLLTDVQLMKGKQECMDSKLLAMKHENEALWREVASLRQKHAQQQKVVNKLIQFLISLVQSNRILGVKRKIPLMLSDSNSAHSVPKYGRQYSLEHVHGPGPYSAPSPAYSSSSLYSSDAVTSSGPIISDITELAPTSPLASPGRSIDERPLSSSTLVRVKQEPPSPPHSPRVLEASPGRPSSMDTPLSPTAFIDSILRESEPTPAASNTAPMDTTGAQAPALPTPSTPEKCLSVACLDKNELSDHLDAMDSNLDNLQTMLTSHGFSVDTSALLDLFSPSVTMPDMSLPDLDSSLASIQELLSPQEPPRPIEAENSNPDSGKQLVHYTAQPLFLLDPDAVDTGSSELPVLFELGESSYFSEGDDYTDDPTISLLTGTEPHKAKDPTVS

[6] = cells; format: functional, cell-based
[7] = cells; format: functional, cell-based; remark: listed apart in the source
[8] = test system: BJ; test: BJ-TERT-LT-ST fibroblast viability loss – cell-based, RAS-independent, luminescence, dose response (AID 1935); format: functional; conditions: Homo sapiens;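 note: BJ fibroblasts immortalized with TERT plus LT and ST oncogenes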
[9] = test system: BJ; test: BJ-TERT fibroblast viability loss – cell-based, RAS-independent, luminescence, dose response (AID 1933); format: functional; conditions: Homo sapiens
[10] = DRD fibroblast viability loss – cell-based, non-viral oncogenic, luminescence, dose response (AID 1934); format: functional; conditions: Homo sapiens
[11] = test system: BJ; test: cells; format: functional, cell-based; conditions: Homo sapiens
[12] = target: Fatty acid synthase (Homo sapiens, UniProt P49327); test: inhibition of human FAS-TE enzyme activity – biochemical, kinetic fluorescence intensity, dose response (AID 624326); format: functional;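 note: rate of fluorescence rise from hydrolysis of a fluorogenic O-methyl fluorescein ester substrate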
Chain of Fatty acid synthase (P49327 whole entry): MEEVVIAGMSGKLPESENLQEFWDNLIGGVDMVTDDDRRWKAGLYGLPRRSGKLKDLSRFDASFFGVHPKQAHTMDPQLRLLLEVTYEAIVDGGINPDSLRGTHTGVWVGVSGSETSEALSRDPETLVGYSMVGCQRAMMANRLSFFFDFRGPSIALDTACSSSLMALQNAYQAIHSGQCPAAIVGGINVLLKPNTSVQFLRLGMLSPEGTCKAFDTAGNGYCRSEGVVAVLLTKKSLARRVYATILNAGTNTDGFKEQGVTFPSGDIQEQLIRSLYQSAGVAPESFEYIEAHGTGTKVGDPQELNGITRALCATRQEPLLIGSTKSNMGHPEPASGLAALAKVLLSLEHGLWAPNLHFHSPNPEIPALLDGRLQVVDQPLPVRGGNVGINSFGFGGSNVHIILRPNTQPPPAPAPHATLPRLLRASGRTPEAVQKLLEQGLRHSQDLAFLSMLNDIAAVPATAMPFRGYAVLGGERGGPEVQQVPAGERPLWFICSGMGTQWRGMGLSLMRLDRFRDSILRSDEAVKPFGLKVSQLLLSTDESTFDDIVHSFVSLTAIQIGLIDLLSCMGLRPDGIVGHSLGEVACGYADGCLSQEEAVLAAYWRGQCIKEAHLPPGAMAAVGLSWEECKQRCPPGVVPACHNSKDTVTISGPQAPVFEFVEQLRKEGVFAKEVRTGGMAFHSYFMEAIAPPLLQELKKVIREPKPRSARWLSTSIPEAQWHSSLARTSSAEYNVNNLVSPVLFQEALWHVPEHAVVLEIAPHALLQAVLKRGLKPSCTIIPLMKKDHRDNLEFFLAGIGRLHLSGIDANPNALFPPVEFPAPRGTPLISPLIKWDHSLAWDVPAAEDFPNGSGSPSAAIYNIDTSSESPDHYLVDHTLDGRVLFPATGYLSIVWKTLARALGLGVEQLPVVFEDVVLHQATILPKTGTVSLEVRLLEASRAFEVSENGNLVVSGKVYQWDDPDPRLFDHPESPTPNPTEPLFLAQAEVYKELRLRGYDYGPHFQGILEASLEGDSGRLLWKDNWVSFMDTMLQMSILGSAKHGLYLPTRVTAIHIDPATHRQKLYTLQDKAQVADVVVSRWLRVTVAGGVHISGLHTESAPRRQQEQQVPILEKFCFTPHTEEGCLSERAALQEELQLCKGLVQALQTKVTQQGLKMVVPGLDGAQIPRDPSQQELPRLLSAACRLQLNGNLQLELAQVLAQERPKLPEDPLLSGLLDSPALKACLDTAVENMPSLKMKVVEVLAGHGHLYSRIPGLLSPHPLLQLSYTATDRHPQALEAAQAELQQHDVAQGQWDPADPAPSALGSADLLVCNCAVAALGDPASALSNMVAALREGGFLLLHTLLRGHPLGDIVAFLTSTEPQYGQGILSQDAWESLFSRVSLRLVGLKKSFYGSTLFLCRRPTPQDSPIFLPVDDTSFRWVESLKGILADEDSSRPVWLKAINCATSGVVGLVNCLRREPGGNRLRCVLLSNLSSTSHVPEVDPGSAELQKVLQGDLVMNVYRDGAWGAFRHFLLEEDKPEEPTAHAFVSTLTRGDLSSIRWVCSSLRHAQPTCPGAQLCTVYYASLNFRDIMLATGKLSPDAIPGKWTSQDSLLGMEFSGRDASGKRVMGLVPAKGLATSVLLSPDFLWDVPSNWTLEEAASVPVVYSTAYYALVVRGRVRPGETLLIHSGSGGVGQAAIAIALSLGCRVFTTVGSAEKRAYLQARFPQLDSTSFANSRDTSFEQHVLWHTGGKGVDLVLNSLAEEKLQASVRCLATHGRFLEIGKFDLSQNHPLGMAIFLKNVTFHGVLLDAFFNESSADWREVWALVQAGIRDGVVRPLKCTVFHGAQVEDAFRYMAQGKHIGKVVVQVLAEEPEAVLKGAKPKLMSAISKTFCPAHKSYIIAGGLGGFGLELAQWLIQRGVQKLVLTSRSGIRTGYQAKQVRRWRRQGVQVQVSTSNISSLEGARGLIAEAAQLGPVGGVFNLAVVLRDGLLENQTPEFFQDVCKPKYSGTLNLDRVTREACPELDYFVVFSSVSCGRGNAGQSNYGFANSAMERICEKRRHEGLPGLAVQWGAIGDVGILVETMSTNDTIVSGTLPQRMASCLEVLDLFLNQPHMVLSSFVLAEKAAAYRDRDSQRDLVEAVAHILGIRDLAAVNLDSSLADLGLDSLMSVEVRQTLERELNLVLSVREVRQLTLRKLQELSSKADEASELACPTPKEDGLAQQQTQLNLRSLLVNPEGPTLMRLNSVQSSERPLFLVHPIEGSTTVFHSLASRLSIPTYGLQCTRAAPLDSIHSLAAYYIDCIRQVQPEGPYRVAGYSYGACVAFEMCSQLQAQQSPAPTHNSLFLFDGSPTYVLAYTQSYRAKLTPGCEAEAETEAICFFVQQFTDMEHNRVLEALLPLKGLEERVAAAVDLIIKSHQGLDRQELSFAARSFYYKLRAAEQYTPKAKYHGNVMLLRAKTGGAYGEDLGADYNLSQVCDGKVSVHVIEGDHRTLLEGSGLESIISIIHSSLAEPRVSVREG

[13] = target: T3, Protein RecA (Mycobacterium tuberculosis, UniProt P9WHJ3); test: Fluorescence Cell-Free Homogeneous Dose Retest to Identify Inhibitors of RecA-Intein Splicing Activity. [Related pubchem assays (depositor defined):AID2097, AID2223, AID489010, AID492950]; format: functional
T3 sequence (P9WHJ3 whole entry): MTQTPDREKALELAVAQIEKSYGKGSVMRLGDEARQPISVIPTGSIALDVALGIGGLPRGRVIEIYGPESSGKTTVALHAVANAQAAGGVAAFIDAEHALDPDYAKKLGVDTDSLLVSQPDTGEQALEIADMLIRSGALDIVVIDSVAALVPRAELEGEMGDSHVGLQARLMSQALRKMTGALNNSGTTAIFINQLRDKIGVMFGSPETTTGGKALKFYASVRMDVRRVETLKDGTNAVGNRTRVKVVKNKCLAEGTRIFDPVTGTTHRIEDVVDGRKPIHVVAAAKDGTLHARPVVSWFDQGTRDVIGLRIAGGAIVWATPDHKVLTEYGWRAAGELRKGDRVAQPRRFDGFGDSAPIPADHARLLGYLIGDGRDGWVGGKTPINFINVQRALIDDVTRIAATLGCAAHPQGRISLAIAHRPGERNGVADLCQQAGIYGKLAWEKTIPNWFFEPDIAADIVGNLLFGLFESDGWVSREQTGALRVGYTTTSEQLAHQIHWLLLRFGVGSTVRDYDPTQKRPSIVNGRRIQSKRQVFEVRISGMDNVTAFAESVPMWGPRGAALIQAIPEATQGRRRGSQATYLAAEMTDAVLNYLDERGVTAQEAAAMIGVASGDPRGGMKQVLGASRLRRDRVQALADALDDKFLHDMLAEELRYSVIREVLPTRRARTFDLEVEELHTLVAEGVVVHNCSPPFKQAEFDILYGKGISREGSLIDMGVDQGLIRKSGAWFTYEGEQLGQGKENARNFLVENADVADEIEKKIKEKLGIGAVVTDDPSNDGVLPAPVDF

[14] = target: T4, Replicative DNA helicase DnaB (Mycobacterium tuberculosis, UniProt P9WMR3); test: DnaB intein splicing inhibitors, dose response, biochemical, cell-free fluorescence (AID 449749); format: functional
T4 sequence (P9WMR3 whole entry): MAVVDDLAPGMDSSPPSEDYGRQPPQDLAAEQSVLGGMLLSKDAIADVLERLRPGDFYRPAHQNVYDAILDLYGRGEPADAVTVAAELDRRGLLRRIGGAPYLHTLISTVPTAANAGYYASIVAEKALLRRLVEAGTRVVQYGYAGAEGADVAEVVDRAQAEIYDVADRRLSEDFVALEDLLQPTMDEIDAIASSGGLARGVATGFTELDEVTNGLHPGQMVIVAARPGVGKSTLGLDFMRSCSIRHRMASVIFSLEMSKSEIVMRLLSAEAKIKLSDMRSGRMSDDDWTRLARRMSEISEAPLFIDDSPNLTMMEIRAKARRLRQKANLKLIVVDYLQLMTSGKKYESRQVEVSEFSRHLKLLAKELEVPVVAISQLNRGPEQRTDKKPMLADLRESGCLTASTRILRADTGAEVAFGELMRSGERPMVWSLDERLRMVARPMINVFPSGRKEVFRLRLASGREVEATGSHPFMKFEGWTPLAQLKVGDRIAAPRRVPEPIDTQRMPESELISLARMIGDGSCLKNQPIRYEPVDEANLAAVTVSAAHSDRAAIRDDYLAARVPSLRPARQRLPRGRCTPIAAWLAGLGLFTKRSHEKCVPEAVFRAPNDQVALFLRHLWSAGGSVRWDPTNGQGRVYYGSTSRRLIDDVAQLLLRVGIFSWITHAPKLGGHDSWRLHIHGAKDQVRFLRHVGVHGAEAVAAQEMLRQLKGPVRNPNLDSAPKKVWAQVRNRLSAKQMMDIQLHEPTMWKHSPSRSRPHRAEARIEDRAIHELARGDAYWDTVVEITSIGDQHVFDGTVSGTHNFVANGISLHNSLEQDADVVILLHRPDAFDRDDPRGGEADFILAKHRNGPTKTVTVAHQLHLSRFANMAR

[15] = intracellular Trypanosoma cruzi inhibitors in host cells – cell-based, plate reader, cherry-pick samples, set 3, dose response (AID 651818); format: functional;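 note: compounds incubated with infected cells for about four days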
[16] = P. falciparum Dd2 growth inhibitors, dose response, SYBR Green, cherry-picked samples (AID 1159567); format: functional, cell-based
[17] = target: FAD-linked sulfhydryl oxidase ALR (Homo sapiens, UniProt P55789); test: ALR-catalysed DTT oxidation blockers – biochemical, H2O2 detection, luminescence, cherry-pick, dose response (AID 493248)
Chain of FAD-linked sulfhydryl oxidase ALR (P55789 whole entry): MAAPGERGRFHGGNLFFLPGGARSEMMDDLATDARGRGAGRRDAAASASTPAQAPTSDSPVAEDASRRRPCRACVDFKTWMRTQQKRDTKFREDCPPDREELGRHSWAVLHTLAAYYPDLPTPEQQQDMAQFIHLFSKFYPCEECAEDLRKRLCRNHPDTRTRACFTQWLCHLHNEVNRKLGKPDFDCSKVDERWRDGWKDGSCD

Compound: O=c1cc(-c2ccc(O)c(O)c2)oc2cc(O)c(C3OC(CO)C(O)C(O)C3O)c(O)c12 (stereo not given)
- IC50 [1]: 42.9 µM (active)
- IC50 [2]: 5.23 µM (active)

Compound: O=C(NCc1ccco1)c1cc(-c2cccnc2)nc2ccc(Cl)cc12
- IC50 [3]: > 79 µM (inactive)

Compound: COc1ccc(N2C(=O)CC(Sc3n[nH]c(-c4cccc(C)c4)n3)C2=O)cc1 (stereo not given)
- IC50 [2]: 76.5 µM (active)

Compound: CCOc1cc(N2CCOCC2)c(OCC)cc1NC(=O)COC(=O)CCOc1ccc(C)cc1
- IC50 [2]: > 100 µM (active)

Compound: O=C(NN=C(Cc1ccccc1)Cc1ccccc1)c1ccncc1
- IC50 [4]: 0.17 µM (active)

Compound: O=C(O)c1ccccc1C(=O)NC1=NN(c2ccccc2)CC1
- IC50 [2]: 14.2 µM (active)

Compound: CCCCCn1c(=O)c(C(=O)NCc2ccccn2)c(O)c2ccccc21
- IC50 [3]: 5.88 µM (active)

Compound: C=CCc1c(C)nc2c(-c3ccccc3)cnn2c1N1CCOCC1
- EC50 [5]: > 195 µM (not active)
- EC50 [6]: > 350 µM (not active)
- EC50 [7]: > 350 µM (not active)

Compound: COc1ccc(C(C(=O)NC2CCCCC2)N(C(=O)CCl)c2ccccc2Cl)cc1 (stereo not given)
- EC50 [8]: > 150 µM (not active)
- EC50 [9]: 0.566 µM (inconclusive)
- EC50 [10]: 4.62 µM (inconclusive)
- EC50 [11]: > 150 µM (not active)

Compound: Cc1nc(N2CCN(c3ccccn3)CC2)c2c(C)c(C(=O)Nc3ccc(F)cc3)sc2n1
- IC50 [3]: > 79 µM (inactive)

Compound: COc1cc(C(=O)NCCCNc2nc3cc(C)cc(C)c3cc2C#N)cc(OC)c1OC
- IC50 [3]: > 79 µM (inactive)

Compound: Cc1cc(C)c(S(=O)(=O)N2CCN(C(=O)c3cc(O)nc4ccccc34)CC2)c(C)c1
- IC50 [3]: > 79 µM (inactive)

Compound: CC(C)(C)OC(=O)NCCCC[C@H](NC(=O)c1[nH]cnc1C(=O)NCC(=O)OCc1ccccc1)C(=O)OC(C)(C)C
- IC50 [12]: 0.16 µM (active)

Compound: Cc1ccc(NC(=O)COC(=O)C2=COCCO2)c([N+](=O)[O-])c1
- IC50 [4]: 3.39 µM (active)

Compound: COc1ccc(C(=O)Nc2ccc(O)c3ccccc23)cc1
- EC50 [13]: 0.0744 µM (active)
- IC50 [2]: 30.8 µM (active)
- AC50 [14]: 1.22 µM (active)

Compound: CCC(Oc1ccccc1)C(=O)Nc1ccccc1C(=O)N1CCCCC1 (stereo not given)
- IC50 [3]: 23.8 µM (active)

Compound: COc1cc(NC(=O)c2ccc(-c3cn[nH]c3)c3ccoc23)cc(OC)c1OC
- IC50 [3]: > 79 µM (inactive)

Compound: C[C@H]1CN([C@@H](C)CO)C(=O)c2cc(NS(=O)(=O)c3ccccc3)ccc2O[C@H]1CN(C)Cc1ccc(Cl)c(Cl)c1
- AC50 [15]: 5.12 µM (active)

Compound: C[C@@H]1CN([C@H](C)CO)C(=O)Cc2cc(NC(=O)Cc3cn(C)c4ccccc34)ccc2O[C@H]1CN(C)Cc1ccc(Cl)c(Cl)c1
- AC50 [15]: 3.78 µM (active)

Compound: C[C@H](CO)N1C[C@H](C)[C@H](CN(C)Cc2ccc(C(F)(F)F)cc2)Oc2ccc(NC(=O)Nc3ccc4c(c3)OCO4)cc2CC1=O
- AC50 [15]: 5.85 µM (active)

Compound: C[C@@H]1CN([C@H](C)CO)C(=O)Cc2cc(NC(=O)Nc3ccc(C(F)(F)F)cc3)ccc2O[C@@H]1CN(C)S(=O)(=O)c1ccc(F)cc1
- AC50 [15]: 7.08 µM (active)

Compound: C[C@@H]1CN([C@H](C)CO)C(=O)c2cccc(NC(=O)NC3CCCCC3)c2O[C@H]1CN(C)Cc1ccc(C(F)(F)F)cc1
- AC50 [15]: 1.86 µM (active)

Compound: C[C@@H]1CN([C@H](C)CO)C(=O)Cc2cc(NC(=O)Nc3ccc4c(c3)OCO4)ccc2O[C@@H]1CN(C)Cc1ccc(Cl)c(Cl)c1
- AC50 [15]: 3.71 µM (active)

Compound: C[C@H](CO)N1C[C@H](C)[C@H](CN(C)CC2CCCCC2)Oc2c(NC(=O)c3nc4ccccc4s3)cccc2C1=O
- AC50 [15]: 3.31 µM (active)

Compound: C[C@@H]1CN([C@@H](C)CO)C(=O)Cc2cc(NC(=O)Nc3ccc(C(F)(F)F)cc3)ccc2O[C@@H]1CN(C)S(=O)(=O)c1ccccc1
- AC50 [15]: 3.88 µM (active)

Compound: COc1cccc(C(C[N+](=O)[O-])c2c(C)[nH]n(-c3ccccc3)c2=O)c1 (stereo not given)
- EC50 [13]: 2.25 µM (active)
- EC50 [6]: > 350 µM (not active)
- EC50 [7]: > 350 µM (not active)
- AC50 [14]: 16.5 µM (active)

Compound: CO[C@@H]1CN(C)C(=O)c2ccc(NC(=O)Nc3ccc(F)cc3)cc2OC[C@@H](C)N(C(=O)c2ccc(F)cc2)C[C@H]1C
- AC50 [16]: 8.03 µM (active)

Compound: CCN(CC)S(=O)(=O)c1ccc(N/N=C/c2ccc(O)cc2)nc1
- IC50 [1]: 31.5 µM (active)
- IC50 [2]: 11.5 µM (active)

Compound: COc1cc(/C=N\NC(=O)CNC(=O)c2cccc([N+](=O)[O-])c2)ccc1O
- IC50 [1]: 16.5 µM (active)
- AC50 [17]: 2.41 µM (active)
- IC50 [2]: 3.75 µM (active)

Compound: O=C(Nc1ccc(F)cc1)N1CC(=O)N2[C@H](C1)[C@@H](c1ccc(C#Cc3ccc(F)cc3)cc1)[C@@H]2CO
- AC50 [16]: 4.49 µM (active)

Compound: CO[C@H]1CN(C)C(=O)c2ccc(NS(=O)(=O)CC(F)(F)F)cc2OC[C@@H](C)N(Cc2nccs2)C[C@H]1C
- AC50 [16]: > 39 µM (inactive)
